Where “and” joins values, the source holds several entries; their conditions need not be identical. Equal entries are not always repeated. Where two headings read alike, the source gives them in different places.
Experiments:
SARS2 = type: cell-based, SARS-CoV-2; conditions: for Infection Data, Average, Mean percentage infection relative to DMSO control: Average of Exp 1 (SMW506) and Exp 2 (SMW507); for Infection Data, Percentage Infection Relative to Appropriate DMSO Control: single well, avg background subtraction; for Percentage Inhibition Average 1 μM / Screening data (Relative infection to DMSO controls) Average 1 μM: SARS2, 1 μM; for Screening data (Relative infection to DMSO controls) Average 1 μM / Screening data (Relative infection to DMSO controls) Average 5 μM / Screening data (Relative infection to DMSO controls) Average 10 μM / Screening data (Relative infection to DMSO controls) Average 25 μM / Screening data (Relative infection to DMSO controls) Average 50 μM / Average (relative infection to DMSO over the 5 tested concentrations): 100=DMSO control; for Percentage Inhibition Average 5 μM / Screening data (Relative infection to DMSO controls) Average 5 μM: SARS2, 5 μM; for Percentage Inhibition Average 10 μM / Screening data (Relative infection to DMSO controls) Average 10 μM: SARS2, 10 μM; for Percentage Inhibition Average 25 μM / Screening data (Relative infection to DMSO controls) Average 25 μM: SARS2, 25 μM; for Percentage Inhibition Average 50 μM / Screening data (Relative infection to DMSO controls) Average 50 μM: SARS2, 50 μM; for Average (relative infection to DMSO over the 5 tested concentrations): SARS2, average over 1 to 50 uM
cells (nuclei count) = conditions: for Toxicity Data, Average, Mean (percentage relative to appropriate DMSO control): average of Exp 1 and Exp 2, n=4; for Relative cell count to DMSO controls, Average 1 μM / Relative cell count to DMSO controls, Average 5 μM / Relative cell count to DMSO controls, Average 10 μM / Relative cell count to DMSO controls, Average 25 μM / Relative cell count to DMSO controls, Average 50 μM: toxicity data, 100=DMSO control; for Toxicity Data, Percentage Relative to Appropriate DMSO Control: single well; for Relative cell count to DMSO controls, Average (for correlation analysis): average value over the 5 tested concentrations (1 to 50 uM)

COc1ccc(CNCCc2ccccc2F)c(OCC(O)CN2CCOCC2)c1 (stereo not drawn) [SILCS49]
Infection Data, Average, Mean percentage infection relative to DMSO control (SARS2; n=4, 1 uM): 90.24% | Infection Data, Average, Mean percentage infection relative to DMSO control (SARS2; n=4, 5 uM): 54.75% | Infection Data, Average, Mean percentage infection relative to DMSO control (SARS2; n=4, 10 uM): 29.10% | Infection Data, Average, Mean percentage infection relative to DMSO control (SARS2; n=4, 25 uM): 27.11% | Infection Data, Average, Mean percentage infection relative to DMSO control (SARS2; n=4, 50 uM): 13.54% | Infection Data, Percentage Infection Relative to Appropriate DMSO Control (SARS2; Exp 1 (SMW506), 1 uM): 101.13% and 94.70% | Infection Data, Percentage Infection Relative to Appropriate DMSO Control (SARS2; Exp 1 (SMW506), 5 uM): 55.30% and 50.40% | Infection Data, Percentage Infection Relative to Appropriate DMSO Control (SARS2; Exp 1 (SMW506), 10 uM): 38.04% and 34.18% | Infection Data, Percentage Infection Relative to Appropriate DMSO Control (SARS2; Exp 1 (SMW506), 25 uM): 27.25% and 33.31% | Infection Data, Percentage Infection Relative to Appropriate DMSO Control (SARS2; Exp 1 (SMW506), 50 uM): 9.17% and 7.35% | Infection Data, Percentage Infection Relative to Appropriate DMSO Control (SARS2; Exp 2 (SMW507), 1 uM): 67.31% and 97.84% | Infection Data, Percentage Infection Relative to Appropriate DMSO Control (SARS2; Exp 2 (SMW507), 5 uM): 52.91% and 60.38% | Infection Data, Percentage Infection Relative to Appropriate DMSO Control (SARS2; Exp 2 (SMW507), 10 uM): 23.33% and 20.87% | Infection Data, Percentage Infection Relative to Appropriate DMSO Control (SARS2; Exp 2 (SMW507), 25 uM): 29.98% and 17.91% | Infection Data, Percentage Infection Relative to Appropriate DMSO Control (SARS2; Exp 2 (SMW507), 50 uM): 19.58% and 18.05% | Percentage Inhibition Average 1 μM (SARS2): 9.76% | Screening data (Relative infection to DMSO controls) Average 1 μM (SARS2): 90.24 | Percentage Inhibition Average 5 μM (SARS2): 45.25% | Screening data (Relative infection to DMSO controls) Average 5 μM (SARS2): 54.75 | Percentage Inhibition Average 10 μM (SARS2): 70.90% | Screening data (Relative infection to DMSO controls) Average 10 μM (SARS2): 29.10 | Percentage Inhibition Average 25 μM (SARS2): 72.89% | Screening data (Relative infection to DMSO controls) Average 25 μM (SARS2): 27.11 | Percentage Inhibition Average 50 μM (SARS2): 86.46% | Screening data (Relative infection to DMSO controls) Average 50 μM (SARS2): 13.54 | Average (relative infection to DMSO over the 5 tested concentrations) (SARS2): 42.95 | Toxicity Data, Average, Mean (percentage relative to appropriate DMSO control) (cells (nuclei count); 1 uM): 104.43% | Relative cell count to DMSO controls, Average 1 μM (cells (nuclei count)): 104.43 | Toxicity Data, Average, Mean (percentage relative to appropriate DMSO control) (cells (nuclei count); 5 uM): 113.44% | Relative cell count to DMSO controls, Average 5 μM (cells (nuclei count)): 113.44 | Toxicity Data, Average, Mean (percentage relative to appropriate DMSO control) (cells (nuclei count); 10 uM): 120.89% | Relative cell count to DMSO controls, Average 10 μM (cells (nuclei count)): 120.89 | Toxicity Data, Average, Mean (percentage relative to appropriate DMSO control) (cells (nuclei count); 25 uM): 115.31% | Relative cell count to DMSO controls, Average 25 μM (cells (nuclei count)): 115.31 | Toxicity Data, Average, Mean (percentage relative to appropriate DMSO control) (cells (nuclei count); 50 uM): 98.89% | Relative cell count to DMSO controls, Average 50 μM (cells (nuclei count)): 98.89 | Toxicity Data, Percentage Relative to Appropriate DMSO Control (cells (nuclei count); Exp 1 (SMW506), 1 uM): 91% and 100% | Toxicity Data, Percentage Relative to Appropriate DMSO Control (cells (nuclei count); Exp 1 (SMW506), 5 uM): 103% and 110% | Toxicity Data, Percentage Relative to Appropriate DMSO Control (cells (nuclei count); Exp 1 (SMW506), 10 uM): 111% and 115% | Toxicity Data, Percentage Relative to Appropriate DMSO Control (cells (nuclei count); Exp 1 (SMW506), 25 uM): 109% and 115% | Toxicity Data, Percentage Relative to Appropriate DMSO Control (cells (nuclei count); Exp 1 (SMW506), 50 uM): 97% and 101% | Toxicity Data, Percentage Relative to Appropriate DMSO Control (cells (nuclei count); Exp 2 (SMW507), 1 uM): 111% and 116% | Toxicity Data, Percentage Relative to Appropriate DMSO Control (cells (nuclei count); Exp 2 (SMW507), 5 uM): 115% and 126% | Toxicity Data, Percentage Relative to Appropriate DMSO Control (cells (nuclei count); Exp 2 (SMW507), 10 uM): 124% and 133% | Toxicity Data, Percentage Relative to Appropriate DMSO Control (cells (nuclei count); Exp 2 (SMW507), 25 uM): 112% and 125% | Toxicity Data, Percentage Relative to Appropriate DMSO Control (cells (nuclei count); Exp 2 (SMW507), 50 uM): 91% and 107% | Relative cell count to DMSO controls, Average (for correlation analysis) (cells (nuclei count)): 110.59

COc1ccc(-c2[nH]ncc2C(=O)NCC2CCCCC2)cc1OC [SILCS52]
Percentage Inhibition Average 1 μM (SARS2): 7.72% | Screening data (Relative infection to DMSO controls) Average 1 μM (SARS2): 92.28 | Percentage Inhibition Average 5 μM (SARS2): −17.76% | Screening data (Relative infection to DMSO controls) Average 5 μM (SARS2): 117.76 | Percentage Inhibition Average 10 μM (SARS2): −4.43% | Screening data (Relative infection to DMSO controls) Average 10 μM (SARS2): 104.43 | Percentage Inhibition Average 25 μM (SARS2): −20.98% | Screening data (Relative infection to DMSO controls) Average 25 μM (SARS2): 120.98 | Percentage Inhibition Average 50 μM (SARS2): −22.98% | Screening data (Relative infection to DMSO controls) Average 50 μM (SARS2): 122.98 | Average (relative infection to DMSO over the 5 tested concentrations) (SARS2): 111.69 | Relative cell count to DMSO controls, Average 1 μM (cells (nuclei count)): 103.3 | Relative cell count to DMSO controls, Average 5 μM (cells (nuclei count)): 97.63 | Relative cell count to DMSO controls, Average 10 μM (cells (nuclei count)): 97.92 | Relative cell count to DMSO controls, Average 25 μM (cells (nuclei count)): 94.91 | Relative cell count to DMSO controls, Average 50 μM (cells (nuclei count)): 81.04 | Relative cell count to DMSO controls, Average (for correlation analysis) (cells (nuclei count)): 94.96

COc1ccc(-c2[nH]ncc2C(=O)NCC2CCC2)cc1OC [SILCS54]
Percentage Inhibition Average 1 μM (SARS2): 0.61% | Screening data (Relative infection to DMSO controls) Average 1 μM (SARS2): 99.39 | Percentage Inhibition Average 5 μM (SARS2): 7.12% | Screening data (Relative infection to DMSO controls) Average 5 μM (SARS2): 92.88 | Percentage Inhibition Average 10 μM (SARS2): 10.70% | Screening data (Relative infection to DMSO controls) Average 10 μM (SARS2): 89.30 | Percentage Inhibition Average 25 μM (SARS2): −5.10% | Screening data (Relative infection to DMSO controls) Average 25 μM (SARS2): 105.10 | Percentage Inhibition Average 50 μM (SARS2): −13.08% | Screening data (Relative infection to DMSO controls) Average 50 μM (SARS2): 113.08 | Average (relative infection to DMSO over the 5 tested concentrations) (SARS2): 99.95 | Relative cell count to DMSO controls, Average 1 μM (cells (nuclei count)): 100.58 | Relative cell count to DMSO controls, Average 5 μM (cells (nuclei count)): 101.65 | Relative cell count to DMSO controls, Average 10 μM (cells (nuclei count)): 100.51 | Relative cell count to DMSO controls, Average 25 μM (cells (nuclei count)): 99.71 | Relative cell count to DMSO controls, Average 50 μM (cells (nuclei count)): 88.29 | Relative cell count to DMSO controls, Average (for correlation analysis) (cells (nuclei count)): 98.15

— patent US20240132484A1, “BROAD SPECTRUM ANTIVIRAL COMPOUNDS TARGETING THE SKI COMPLEX” (priority 2020, published 2024)
